Measurements from patent US9616129B2, “Compositions and methods for potentiating immune response, enhancing immunotherapy, and increasing vaccine potency” (Nitor Therapeutics, priority 2013, dated 2017).

What was measured:
human TLR4 = biological target: T1, human TLR4 (Homo sapiens, UniProt O00206); assay: TLR ligand screening, NF-κB SEAP reporter in HEK293 cells expressing TLR4; assay type: cell-based; conditions: one concentration: Guanosine 100 uM, NTR001 10 uM, Inosine 100 uM; FIG. 2
T1 construct: expressed in transfected cells; host or cells: HEK293
T1 sequence (O00206 24-839): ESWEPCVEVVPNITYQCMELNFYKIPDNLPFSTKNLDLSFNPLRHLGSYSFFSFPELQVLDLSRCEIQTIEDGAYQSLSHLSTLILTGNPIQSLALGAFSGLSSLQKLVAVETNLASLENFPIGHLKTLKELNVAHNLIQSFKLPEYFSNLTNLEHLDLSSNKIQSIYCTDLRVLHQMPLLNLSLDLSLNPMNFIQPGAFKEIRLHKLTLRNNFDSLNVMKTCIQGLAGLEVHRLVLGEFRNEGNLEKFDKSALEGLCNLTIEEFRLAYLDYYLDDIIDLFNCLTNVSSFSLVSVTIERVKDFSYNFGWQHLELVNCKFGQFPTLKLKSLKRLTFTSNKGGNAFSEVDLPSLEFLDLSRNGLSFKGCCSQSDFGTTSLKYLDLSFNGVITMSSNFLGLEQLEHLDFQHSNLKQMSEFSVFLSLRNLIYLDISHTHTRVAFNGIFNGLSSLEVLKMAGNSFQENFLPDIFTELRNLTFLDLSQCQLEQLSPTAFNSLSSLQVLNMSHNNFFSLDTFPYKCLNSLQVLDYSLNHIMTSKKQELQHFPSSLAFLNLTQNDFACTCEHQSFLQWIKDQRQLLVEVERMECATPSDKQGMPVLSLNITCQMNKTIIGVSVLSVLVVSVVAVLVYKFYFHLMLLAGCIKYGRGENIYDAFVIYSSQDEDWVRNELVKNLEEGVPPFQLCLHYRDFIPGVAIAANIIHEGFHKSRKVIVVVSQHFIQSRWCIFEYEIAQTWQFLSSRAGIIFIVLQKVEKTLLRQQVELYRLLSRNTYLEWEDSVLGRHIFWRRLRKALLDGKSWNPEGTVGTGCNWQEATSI
T1 sequence (Q9Y6Y9 17-160 partner limits assumed): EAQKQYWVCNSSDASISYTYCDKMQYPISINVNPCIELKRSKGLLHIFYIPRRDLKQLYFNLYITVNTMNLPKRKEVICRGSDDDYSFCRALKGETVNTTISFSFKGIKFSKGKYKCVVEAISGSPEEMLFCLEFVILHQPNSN
Experimental: (§1) TLR stimulation is tested by assessing NF-κB activation in HEK293 cells expressing a given TLR. The Secreted Embryonic Alkaline Phosphatase (SEAP) reporter is under the control of a promoter inducible by the transcription factor NF-κB. This reporter gene allows the monitoring of signaling through the TLR, based on the activation of NF-κB. The compounds are evaluated at one concentration and compared to control ligands. This step is performed in triplicate.

human TLR2 = biological target: T2, human TLR2 (Homo sapiens, UniProt O60603); assay: TLR ligand screening, NF-κB SEAP reporter in HEK293 cells expressing TLR2; assay type: cell-based; conditions: one concentration: Guanosine 100 uM, NTR001 10 uM, Inosine 100 uM; FIG. 2
T2 construct: expressed in transfected cells; host or cells: HEK293
T2 sequence (O60603 21-784): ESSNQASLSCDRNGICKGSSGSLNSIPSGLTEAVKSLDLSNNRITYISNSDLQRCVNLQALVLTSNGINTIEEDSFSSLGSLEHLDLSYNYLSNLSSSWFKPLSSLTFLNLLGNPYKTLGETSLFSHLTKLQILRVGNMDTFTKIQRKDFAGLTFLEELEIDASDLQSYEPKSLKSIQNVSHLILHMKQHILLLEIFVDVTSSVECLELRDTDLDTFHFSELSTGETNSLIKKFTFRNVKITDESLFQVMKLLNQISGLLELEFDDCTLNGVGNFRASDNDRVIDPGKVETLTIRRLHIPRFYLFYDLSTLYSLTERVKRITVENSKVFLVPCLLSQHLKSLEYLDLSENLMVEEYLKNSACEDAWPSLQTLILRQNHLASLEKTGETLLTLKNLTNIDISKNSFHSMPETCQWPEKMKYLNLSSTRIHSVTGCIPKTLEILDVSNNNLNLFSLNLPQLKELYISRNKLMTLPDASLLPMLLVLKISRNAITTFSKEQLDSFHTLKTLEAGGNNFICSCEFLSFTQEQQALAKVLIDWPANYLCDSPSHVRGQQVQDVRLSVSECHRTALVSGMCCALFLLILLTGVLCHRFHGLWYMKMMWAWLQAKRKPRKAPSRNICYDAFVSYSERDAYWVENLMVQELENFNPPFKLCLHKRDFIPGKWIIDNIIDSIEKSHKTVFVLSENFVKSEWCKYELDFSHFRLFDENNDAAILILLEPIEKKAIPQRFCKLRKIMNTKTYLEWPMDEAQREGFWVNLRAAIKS
Experimental: as §1

tetanus toxoid vaccine = assay: Tetanus toxoid vaccine efficacy study (adjuvant) in mice; assay type: in vivo; conditions: compared to vehicle treated group
Experimental: Tetanus toxoid (TT) was used to vaccinate mice thrice, two weeks apart. Mice were treated by oral administration of compounds NTR001 and NTR002 and serum was collected at various time points for antibody titer and interferon-g analysis. Mice in Groups 2-6 (Table 2) are vaccinated subcutaneously with 0.1 ml tetanus toxoid vaccine on DAYS 0, 14 and 28. Mice in Group 1 (Table 1) received no vaccine. Antibody titers for DAYS 38 are determined by ELISA using tetanus toxoid coated microtiter plates and anti-mouse conjugate. Sera from DAY 30 are assayed by ELISA for interferon-g.

[1] = system: L. monocytogenes (ATCC Strain35152, hemolytic substrain); assay: Mouse model of L. monocytogenes infection; assay type: in vivo; conditions: Balb/c mice infected i.v. with 1×10^6 CFU; treatments per Table 3; FIGS. 7 and 9
HCV = conditions: chronically HCV infected patients; cited from earlier work
interferon-a (IFN-a) = conditions: healthy volunteers; oral; cited from earlier work
B16 tumors = assay: Syngeneic mouse melanoma model; assay type: in vivo, C57BL/6 mice; conditions: cyclophosphamide 100 mg/kg IP single dose
Experimental: Cancer cells were injected subcutaneously in right flank of each mouse, 1×10^4 cells in 0.1 ml PBS with 20% Matrigel. Treatment with the NTR001 was initiated on day 6 after injection of tumor cells. Tumor volume and survival were recorded every 3-4 days.

## Nc1nc2c(ncn2[C@@H]2O[C@H](CO)[C@@H](O)[C@H]2O)c(=O)[nH]1 [Guanosine]
Human TLR4
  stimulatory effect on human TLR4 (NF-κB activation): significant stimulatory effect
Human TLR2
  stimulatory effect on human TLR2 (NF-κB activation): significant stimulatory effect

## O=c1[nH]cnc2c(CN3C[C@H](CO)[C@@H](O)C3)c[nH]c12 [NTR002, 1,5-dihydro-7-[[(3R,4R)-3-hydroxy-4-(hydroxymethyl)pyrrolidin-1-yl]methyl]-4H-pyrrolo[3,2-d]pyrimidin-4-one]
Tetanus toxoid vaccine; day 30, ELISA, high dose group 60 mg/kg p.o., FIG. 4
  serum interferon-g: elevated
Tetanus toxoid vaccine; day 38, ELISA, p.o. 30 mg/kg (6 days of treatment) and 60 mg/kg (3 days of treatment), FIG. 3
  serum tetanus toxoid antibody titers: significantly elevated
[1]
  weight loss: significant decrease

## CC(=O)O[C@@H]1C[C@@H](CO)O[C@H]1n1c(=O)sc2cnc(N)nc21 [ANA773]
HCV
  HCV RNA: dose-dependent reduction
interferon-a (IFN-a)
  induction of endogenous interferon-a (IFN-a): induce endogenous interferon-a (IFN-a) of multiple subtypes

## O=P1(N(CCCl)CCCl)NCCCO1 (centres unmarked) [Cycicophosphamide, Cyclophosphamide]
B16 tumors
  survival: 30%
